Results from US20240000885A1 (VANDERBILT UNIVERSITY, published 2024).
Where two headings read alike, the source gives them in different places.

Key:
[1] = molecular target: interaction of MHV M-GFP with Cherry-MYO5B+D tail (902T) in A549 cells (UniProt P03415+Q9ULV0); format: cell-based, human
[2] = molecular target: interaction of MHV M tail with MYO5B(ABCDE) (UniProt P03415+Q9ULV0); format: cell-based, Mouse Hepatitis Virus (MHV)
pAD-MYO5B(ABCDE) = molecular target: T1, pAD-MYO5B(ABCDE) (human, UniProt Q9ULV0 1235-1439); assay: binary yeast 2-hybrid
T1 construct: also called MYO5B ABCDE exons; construct containing just the ABCDE exons
T1 sequence: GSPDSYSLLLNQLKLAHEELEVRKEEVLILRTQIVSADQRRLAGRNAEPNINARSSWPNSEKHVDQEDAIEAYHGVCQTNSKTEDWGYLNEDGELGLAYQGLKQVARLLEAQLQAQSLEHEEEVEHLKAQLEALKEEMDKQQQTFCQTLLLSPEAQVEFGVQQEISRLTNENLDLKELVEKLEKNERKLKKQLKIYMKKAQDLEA

Sequence of interaction of MHV M-GFP with Cherry-MYO5B+D tail (902T) in A549 cells (Q9ULV0 902-1848, one chain of several): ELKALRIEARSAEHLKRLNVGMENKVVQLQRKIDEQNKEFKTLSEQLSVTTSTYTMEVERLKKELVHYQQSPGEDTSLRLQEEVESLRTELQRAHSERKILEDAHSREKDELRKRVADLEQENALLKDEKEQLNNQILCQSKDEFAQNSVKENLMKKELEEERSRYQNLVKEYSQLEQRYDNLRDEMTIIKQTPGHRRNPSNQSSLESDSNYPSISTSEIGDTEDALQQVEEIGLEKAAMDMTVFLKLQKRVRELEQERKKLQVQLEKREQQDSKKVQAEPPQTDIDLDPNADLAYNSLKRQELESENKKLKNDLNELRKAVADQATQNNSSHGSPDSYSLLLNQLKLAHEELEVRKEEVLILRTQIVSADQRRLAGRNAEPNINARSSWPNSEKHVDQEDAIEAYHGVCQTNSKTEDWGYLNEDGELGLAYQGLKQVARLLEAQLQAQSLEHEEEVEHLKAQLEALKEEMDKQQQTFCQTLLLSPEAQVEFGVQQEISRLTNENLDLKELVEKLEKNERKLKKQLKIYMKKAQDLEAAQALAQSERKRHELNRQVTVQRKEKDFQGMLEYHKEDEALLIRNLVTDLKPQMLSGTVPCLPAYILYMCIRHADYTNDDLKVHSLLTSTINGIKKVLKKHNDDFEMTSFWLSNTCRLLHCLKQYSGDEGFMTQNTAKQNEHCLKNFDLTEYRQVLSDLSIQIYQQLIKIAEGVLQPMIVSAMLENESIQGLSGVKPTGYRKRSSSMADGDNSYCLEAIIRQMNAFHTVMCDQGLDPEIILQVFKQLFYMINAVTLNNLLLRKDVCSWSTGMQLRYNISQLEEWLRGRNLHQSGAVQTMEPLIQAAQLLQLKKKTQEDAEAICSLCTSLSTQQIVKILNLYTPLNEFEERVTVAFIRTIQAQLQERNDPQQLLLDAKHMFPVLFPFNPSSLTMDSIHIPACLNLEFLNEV

CN/C(=N/CCSCc1nc[nH]c1C)NC#N [Cimetidine]
effect on the co-localization of MHV M with MYO5B+D [1]: no effect

O=C(O)Cc1ccccc1Nc1c(Cl)cccc1Cl [Diclofenac]
identified as hit in initial yeast 2-hybrid screen (loss of b-galactosidase activity) ([2]; 10 μM, 24 hours): hits | inhibition of the interaction between MHV M and MYO5B+D [1]: more equivocal effects

NC(N)=Nc1nc(CSCCC(N)=NS(N)(=O)=O)cs1 [Famotidine]
effect on the co-localization of MHV M with MYO5B+D [1]: no effect

CS(=O)(=O)Nc1ccc([N+](=O)[O-])cc1Oc1ccccc1 [Nimesulide]
identified as hit in initial yeast 2-hybrid screen (loss of b-galactosidase activity) [2]: hits | inhibition of the interaction between MHV M and MYO5B+D [1]: more equivocal effects

CNC(=C[N+](=O)[O-])NCCSCc1csc(CN(C)C)n1 [Nizatidine]
identified as hit in initial yeast 2-hybrid screen (loss of b-galactosidase activity) [2]: hits | effect on colocalization of MHV M-GFP with ch-MYO5B+D 902 Tail [1]: disrupts the colocalization | inhibition of the interaction between MHV M and MYO5B+D [1]: showed inhibition | lowest concentration causing loss of localization between MHV M and MYO5B+D [1]: 10 pM | lowest concentration that disrupted co-localization of MHV M-GFP and Cherry-MYO5B+D tail [1]: 100 µM | lowest dose that disrupted co-localization of MHV M with MYO5B+D [1]: 100 pM

CN1Cc2c(N)cccc2C(c2ccccc2)C1 (centres unmarked) [Nomifensine]
identified as hit in initial yeast 2-hybrid screen (loss of b-galactosidase activity) ([2]; 10 μM, 24 hours): hits | inhibition of the interaction between MHV M and MYO5B+D [1]: did not alter the interaction

Amiodorone
identified as hit in initial yeast 2-hybrid screen (loss of b-galactosidase activity) ([2]; 10 μM, 24 hours): hits | inhibition of the interaction between MHV M and MYO5B+D [1]: showed inhibition

B1: MHV M tail with deletion of the terminal 2 amino acids (other)
chain: SIRLFIRTGSWWSFNPETNNLMCIDMKGTVYVRPIIEDYHTLTATIIRGHLYMQGVKLGTGFSLSDLPAYVTVAKVSHLCTYKRAFLDKVDGVSGFAVYVKSKVGNYRLPSNKPSGADTALL
binding result (pAD-MYO5B(ABCDE)): binds
